The text below walks through data of patent publication US20190231787A1, “METHODS AND COMPOUNDS FOR TREATING ALCOHOL USE DISORDERS AND ASSOCIATED DISEASES” (PHARMATROPHIX, INC., priority 2016, published 2019).

Entries after “also recorded” stand apart in the source; their conditions may differ.

Test [1] deals with T1, p75NTR (Homo sapiens, UniProt P08138).
T1 sequence (P08138 29-427): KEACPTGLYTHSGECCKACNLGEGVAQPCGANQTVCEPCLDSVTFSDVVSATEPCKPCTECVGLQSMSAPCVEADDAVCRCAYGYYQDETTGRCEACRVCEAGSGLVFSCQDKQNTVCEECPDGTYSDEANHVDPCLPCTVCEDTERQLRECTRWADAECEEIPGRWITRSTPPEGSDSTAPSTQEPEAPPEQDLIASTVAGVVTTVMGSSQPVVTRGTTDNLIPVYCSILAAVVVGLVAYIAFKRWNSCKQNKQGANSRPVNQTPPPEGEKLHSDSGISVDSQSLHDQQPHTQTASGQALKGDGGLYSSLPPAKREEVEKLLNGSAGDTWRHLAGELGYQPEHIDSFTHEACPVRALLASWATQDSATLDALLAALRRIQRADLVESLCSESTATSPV
The conditions noted are these: Massa et al., 2006; Longo and Massa, 2013; cited from earlier work.

The target in test [2] is T2, p75NTR (Rattus norvegicus, UniProt P07174).
T2 construct: from tissue; host or cells: dorsolateral striatum (DLS) of living rats
T2 sequence (P07174 30-425): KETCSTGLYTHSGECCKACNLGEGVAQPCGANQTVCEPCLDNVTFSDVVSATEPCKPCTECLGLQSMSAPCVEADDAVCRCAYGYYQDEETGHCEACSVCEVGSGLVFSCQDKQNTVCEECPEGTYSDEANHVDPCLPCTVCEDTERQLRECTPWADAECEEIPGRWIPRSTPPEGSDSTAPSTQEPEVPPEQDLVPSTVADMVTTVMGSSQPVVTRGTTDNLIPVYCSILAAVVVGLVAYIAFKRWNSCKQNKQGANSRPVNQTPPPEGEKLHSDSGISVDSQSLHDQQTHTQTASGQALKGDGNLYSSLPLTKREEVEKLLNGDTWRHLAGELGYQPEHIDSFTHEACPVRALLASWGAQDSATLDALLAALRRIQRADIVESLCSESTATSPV
Put plainly: IA-2BC 1% sucrose drinking after systemic administration of LM11A-31. The settings on record: LM11A-31 150 mg/kg systemic; IA 1% sucrose 2BC 7 weeks; 30 min access. It counts as in vivo. As to the method: (§1) The procedure was similar to the IA20%-2BC paradigm described above, except that a sucrose (1%) solution was substituted for alcohol. Rats were tested for sucrose intake in response to intra-DLS administration of LM11A-31 or vehicle 1 week after the conclusion of the alcohol-drinking study. Animals were trained to drink sucrose for 2 weeks before the test day. An independent cohort of rats underwent IA-2BC sucrose-drinking paradigm for 7 weeks before systemic administration of LM11A-31.
Before the beginning of experiments, rats were habituated for 3 days to intraperitoneal administration by daily injections of saline (0.9% NaCl). LM11A-31 (50-150 mg/kg) or vehicle (0.9% saline) was administered intraperitoneally 2 hours before the beginning of the drinking session. Test days occurred once a week, with two alcohol-drinking sessions without treatment that were performed between injections to allow intake to return to baseline. For the highest dose of LM11A-31, vehicle and drug were tested in different animals.
To test whether systemic administration of LM11A-31 attenuates binge drinking of sucrose, rats had IA to 1% sucrose in a 2BC paradigm for 7 weeks, and sucrose consumption was measured after 30 min access following LM11A-31 injection.

Test [3] has as its system p75NTR-mediated neuronal death. The settings on record: Knowles et al., 2013, Tep et al.; cited from earlier work.
Test [4] has as its target T2, p75NTR. Nature of the test: Intermittent access to 1% sucrose 2BC after intra-DLS administration of LM11A-31. It counts as in vivo. The conditions noted are these: intra-DLS LM11A-31 30 μg/μl; IA-2BC 1% sucrose, 30 min; vs vehicle. The procedure:
as §1
(§2) Cannula implantation and microinfusions of BDNF and LM11A-31. Four holes were drilled for screws, and two holes were drilled for cannulae implantation (single cannula, C315GA; PlasticsOne). The coordinates for the DLS were +1.2 mm anterior to Bregma and 3.5 mm lateral to the medial suture. The cannulae were implanted into the lateral part of the dorsal striatum (−4.2 mm from the skull surface) and fixed with dental cement. After 1 week of recovery, the alcohol-drinking procedure resumed, and subjects were habituated to the microinjection procedure with two sham injections (injectors were lowered but no infusion took place). The experimental microinfusions began after each rat reacquired a stable level of drinking. BDNF, LM11A-31, or PBS was infused via a 25 μl Hamilton syringe (#1702), 3 h (BDNF) or 2 h (LM11A-31) before the beginning of the alcohol-drinking session. […]

Test [5] addresses T2, p75NTR. Put plainly: IA20%-2BC binge drinking after systemic (intraperitoneal) administration of LM11A-31. The format is in vivo. The settings on record: 30 min. As to the method:
(§3) At 8 weeks of age, animals were given 24 hours of access to one bottle of 20% alcohol (v/v) and one bottle of tap water concurrently for a total of 21 sessions of 24 hours during a period of 7 weeks. Drinking sessions started at 12:00 P.M. on Monday, Wednesday, and Friday, with 24 or 48 hours (weekend) of alcohol deprivation between the drinking sessions. The water and alcohol bottles were weighed before the beginning of each drinking session, immediately after the first 30 minutes of access to alcohol and at the end of the session. Rats with escalation of alcohol consumption from session 1 to session 18, reaching a baseline of drinking that was higher than 3.5 g/kg/24 h, were selected for the studies.
Before the beginning of experiments, rats were habituated for 3 days to intraperitoneal administration by daily injections of saline (0.9% NaCl). LM11A-31 (50-150 mg/kg) or vehicle (0.9% saline) was administered intraperitoneally 2 hours before the beginning of the drinking session. Test days occurred once a week, with two alcohol-drinking sessions without treatment that were performed between injections to allow intake to return to baseline. For the highest dose of LM11A-31, vehicle and drug were tested in different animals. […]

The target in test [6] is T2, p75NTR. Nature of the test: Intermittent access to 20% alcohol 2BC (IA20%-2BC) binge drinking after intra-DLS infusion of LM11A-31. The format is in vivo. The settings on record: intra-DLS LM11A-31 30 μg/1 μl per side, vs vehicle. The procedure: as §3
as §2, with “place).” for “place). The experimental microinfusions began after each rat reacquired a stable level of drinking. BDNF, LM11A-31, or PBS was infused via a 25 μl Hamilton syringe (#1702), 3 h (BDNF) or 2 h (LM11A-31) before the beginning of the alcohol-drinking session.”

For test [7], the system named is Jun kinase. The settings on record: Shi et al., 2013; cited from earlier work.
Test [8] deals with rats with history of moderate (10%) alcohol drinking. The settings on record: exogenous BDNF into the DLS, shown previously; cited from earlier work.
In test [9] the test system is rats with a history of excessive alcohol drinking. Nature of the test: Operant self-administration of alcohol after intra-DLS administration of BDNF. The conditions noted are these: intra-DLS BDNF 0.75 μg/side 3 hours before operant session; 2.5, 10 and 20% alcohol; rats after 5 weeks IA20%-2BC; vs vehicle (PBS). The format is in vivo, rat. As to the method: After 5 weeks of the intermittent access (IA) to 20% alcohol 2BC paradigm (IA20%-2BC), the rats were trained to self-administer alcohol. […] Rats were trained under a fixed ratio 3 schedule; i.e., rats had to press three times to receive one reward. Sessions lasted for the duration of 1 h at the beginning of the training and 30 min after the first 2 weeks. The number of presses on the levers and the number of alcohol deliveries were recorded using MED-PC IV software (Med-Associates).
Cannula implantation and microinfusions of BDNF and LM11A-31. Four holes were drilled for screws, and two holes were drilled for cannulae implantation (single cannula, C315GA; PlasticsOne). The coordinates for the DLS were +1.2 mm anterior to Bregma and 3.5 mm lateral to the medial suture. The cannulae were implanted into the lateral part of the dorsal striatum (−4.2 mm from the skull surface) and fixed with dental cement. […]
To test the possibility that BDNF signaling in the DLS is disrupted after chronic excessive alcohol drinking, the ability of the neurotrophic factor to control alcohol self-administration in rats with a history of excessive alcohol drinking was tested. […] The self-administration of three alcohol concentrations was measured. […]

For the molecule `CC[C@H](C)[C@H](N)C(=O)NCCN1CCOCC1` [LM11A-31, Tris[(2S,3S)-2-amino-3-methyl-N-(2-morpholinoethyl)pentanamide]tetra(monohydrogensulfate), monosulfate], the “binding between p75NTR and neurotrophins, including BDNF” value in test [1] is recorded as “disrupting the binding”. Besides, in test [2], the “binge consumption of sucrose” value is “did not alter” and the corresponding water intake entry is “unaltered”. Besides, the p75NTR-mediated neuronal death entry in [3] was “blocks”. In addition, the sucrose intake result in [4] is “unaltered”. In test [5] (LM11A-31 150 mg/kg intraperitoneally 2 hours before session, IA20%-2BC 7 weeks, vs vehicle), the “binge drinking of alcohol” value is given as “significantly attenuated”. In addition, in test [5] (LM11A-31 50-150 mg/kg intraperitoneally 2 hours before session, IA20%-2BC), the water intake result is “without altering”. Besides, in test [6] (2 h before 30 min alcohol binge-drinking session), the binge-like alcohol intake entry is on record as “significantly reduced”. For the same molecule, the concurrent water intake entry in test [6] (2 h before 30 min alcohol session) is on record as “without changing”. For the same molecule, in test [7], the “phosphorylation of Jun kinase” value is listed as “decreases”.

B1: BDNF: Brain-derived neurotrophic factor; Human BDNF was purchased from Sigma-Aldrich (protein, UniProt P23560 19-247, looked up)
Neurotrophic factor BDNF …: APMKEANIRGQGGLAYPGVRTHGTLESVNGPKAGSRGLTSLADTFEHVIEELLDEDQKVRPNEENNKDADLYTSRVMLSSQVPLEPPLLFLLEEYKNYLDAANMSMRVRRHSDPARRGELSVCDSISEWVTAADKKTAVDMSGGTVTVLEKVPVSKGQLKQYFYETKCNPMGYTKEGCRGIDKRHWNSQCRTTQSYVRALTMDSKKRIGWRFIRIDTSCVCTLTIKRGR
Turning to B1, in test [8], the operant alcohol self-administration entry is “reduces”. Further, in test [9], the “amount of alcohol consumed” value was “does not decrease; also recorded: did not decrease” and the “number of alcohol deliveries” value is “does not decrease; also recorded: did not decrease”.
